This passage reports k off results from ChEMBL document CHEMBL5725854, “Inhibitors of protein methyltransferase DOT1L and methods of use thereof” (2018).

The assay concerns the target Histone-lysine N-methyltransferase, H3 lysine-79 specific (Homo sapiens) (UniProt Q8TEK3).

Sequence of Histone-lysine N-methyltransferase, H3 lysine-79 specific (Homo sapiens) (Q8TEK3 whole entry, looked up): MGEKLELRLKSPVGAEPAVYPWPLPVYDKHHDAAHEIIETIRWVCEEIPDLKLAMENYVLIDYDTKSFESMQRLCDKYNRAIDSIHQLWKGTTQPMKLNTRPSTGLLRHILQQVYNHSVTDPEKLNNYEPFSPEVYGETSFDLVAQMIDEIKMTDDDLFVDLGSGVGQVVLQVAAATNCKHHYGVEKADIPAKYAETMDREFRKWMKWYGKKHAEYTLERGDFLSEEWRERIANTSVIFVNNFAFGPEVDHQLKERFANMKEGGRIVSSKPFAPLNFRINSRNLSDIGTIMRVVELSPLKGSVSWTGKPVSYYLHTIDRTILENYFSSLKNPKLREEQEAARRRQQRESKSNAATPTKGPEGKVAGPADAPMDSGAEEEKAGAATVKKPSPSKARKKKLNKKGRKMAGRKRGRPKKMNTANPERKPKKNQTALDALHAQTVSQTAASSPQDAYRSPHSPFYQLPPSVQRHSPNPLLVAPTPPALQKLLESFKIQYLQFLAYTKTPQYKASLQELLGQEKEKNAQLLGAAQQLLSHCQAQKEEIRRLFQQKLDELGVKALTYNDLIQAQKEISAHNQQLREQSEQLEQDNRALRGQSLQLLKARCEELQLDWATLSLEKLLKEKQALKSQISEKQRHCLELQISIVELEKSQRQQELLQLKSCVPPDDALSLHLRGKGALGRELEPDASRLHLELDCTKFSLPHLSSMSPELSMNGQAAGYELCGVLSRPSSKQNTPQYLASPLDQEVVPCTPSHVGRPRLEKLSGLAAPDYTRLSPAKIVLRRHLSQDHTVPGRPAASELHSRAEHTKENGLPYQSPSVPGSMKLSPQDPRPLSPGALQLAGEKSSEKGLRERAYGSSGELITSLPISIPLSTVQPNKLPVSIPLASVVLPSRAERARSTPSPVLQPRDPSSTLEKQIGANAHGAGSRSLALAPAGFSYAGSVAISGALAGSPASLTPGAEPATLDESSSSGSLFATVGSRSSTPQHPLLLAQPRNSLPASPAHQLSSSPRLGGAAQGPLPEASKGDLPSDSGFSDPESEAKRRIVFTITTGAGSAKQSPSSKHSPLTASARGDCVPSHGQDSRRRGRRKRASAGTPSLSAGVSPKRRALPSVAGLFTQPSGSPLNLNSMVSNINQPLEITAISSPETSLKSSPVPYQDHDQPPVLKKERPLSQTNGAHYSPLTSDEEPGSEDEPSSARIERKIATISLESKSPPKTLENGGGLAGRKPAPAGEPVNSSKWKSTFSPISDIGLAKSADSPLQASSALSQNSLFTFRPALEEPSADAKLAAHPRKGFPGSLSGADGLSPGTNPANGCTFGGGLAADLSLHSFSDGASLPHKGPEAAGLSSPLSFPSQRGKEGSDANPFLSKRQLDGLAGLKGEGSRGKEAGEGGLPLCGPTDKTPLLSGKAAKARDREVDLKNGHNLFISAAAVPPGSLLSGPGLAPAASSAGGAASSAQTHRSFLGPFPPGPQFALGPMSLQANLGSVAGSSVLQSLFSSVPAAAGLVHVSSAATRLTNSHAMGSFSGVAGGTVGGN

On to `Nc1ncnc2c1ncn2[C@@H]1O[C@H](CSCC[C@H](N)OC=O)[C@@H](O)[C@H]1O`, for which the k off was determined as 0.1 s⁻¹.
